“And” between values parts separate entries of the source, which are not always exact repeats. Equal values may be shown once. The source made the active and inactive calls.
Tests used:
[1] = microbe, parasite or virus in culture; format: functional; details: Mycobacterium tuberculosis
[2] = HepG2 cell cytotoxicity, dose response, cytotoxicity control for non-replicating M. tuberculosis project (AID 489018); format: functional; details: Mycobacterium tuberculosis
cells = format: functional
[3] = THP-1 cell cytotoxicity, dose response, cytotoxicity control for non-replicating M. tuberculosis project (AID 489025); format: functional
[4] = Vero E6 cell cytotoxicity, dose response, cytotoxicity control for non-replicating M. tuberculosis project, secondary assay (AID 492998); format: functional, VeroE6; details: Vero C1008
Mu-type opioid receptor = Mu-type opioid receptor (Homo sapiens, UniProt P35372); test: SAR Analysis of Antagonists of the MOR Receptor using an Image-Based Assay - Set 3. [Related pubchem assays (depositor defined):AID1777, AID1785, AID1786, AID1966, AID2133, AID2136, AID2284, AID2285, AID2420]; format: functional
[5] = target: T1, Kappa-type opioid receptor (Homo sapiens, UniProt P41145); test: SAR analysis of small molecule antagonists of the kappa opioid receptor via a luminescent beta-arrestin assay - Set 3. [Related pubchem assays (depositor defined):AID1777, AID1778, AID1785, AID1786, AID1966, AID2133, AID2136, AID2285, AID2495]; format: functional
[6] = target: Delta-type opioid receptor (Homo sapiens, UniProt P41143); test: SAR Analysis of Antagonists of the DOR Receptor using an Image-Based Assay - Set 3. [Related pubchem assays (depositor defined):AID1777, AID1785]; format: functional;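 further: U2OS cells expressing DOR1 and beta-arrestin GFP stimulated with 100 nM SNC80; imaging of GFP-tagged beta-arrestin moving into spots after receptor activation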
[7] = target: T1, Kappa-type opioid receptor; test: SAR analysis of Antagonists of the Kappa Opioid Receptor (KOR) using an Image-Based Assay - Set 3. [Related pubchem assays (depositor defined):AID1777, AID1785]; format: functional
[8] = target: T2, Runt-related transcription factor 1/Core-binding factor subunit beta (Homo sapiens, UniProt Q01196+Q13951); test: Runt domain/CBFb-SMMHC interaction disruptors – biochemical, TR-FRET (AID 1438); format: protein assay
[9] = target: T2, Runt-related transcription factor 1/Core-binding factor subunit beta; test: disruptors of Runt domain/CBFb-SMMHC interaction – biochemical, FRET, Cerulean-Runt, Venus-CBFb-SMMHC, uHTS, […] (AID 1434); format: protein assay
[10] = target: Low molecular weight phosphotyrosine protein phosphatase (Homo sapiens, UniProt P24666); format: functional; details: read-out: IC50_Mean;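 further: Dose-response confirmation assay measuring inhibition of LMPTP enzyme activity by fluorescence intensity read-out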
[11] = target: Type-1 angiotensin II receptor (Homo sapiens, UniProt P30556); test: agonist activity at AGTR1 – cell-based, uHTS hits, selectivity assay for APJ receptor agonist project, dose response (AID 488865); format: functional;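 further: beta-arrestin recruitment to AT1 measured by enzyme fragment complementation luminescence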
[12] = target: DNA dC->dU-editing enzyme APOBEC-3G (Homo sapiens, UniProt Q9HC16); format: functional;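 further: Dose-response counterscreen measuring inhibition of APOBEC3G DNA deaminase activity, run while confirming APOBEC3A inhibitors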
[13] = target: DNA dC->dU-editing enzyme APOBEC-3A (Homo sapiens, UniProt P31941); test: Dose Response confirmation of small molecule APOBEC3A DNA Deaminase Inhibitors via a fluorescence-based single-stranded DNA deaminase assay. [Related pubchem assays (depositor defined):AID493011, AID493024]; format: functional
[14] = target: T3, Mannose-6-phosphate isomerase (Homo sapiens, UniProt P34949); test: MPI inhibition at elevated mannose 6-phosphate – biochemical, fluorescence intensity, high mannose 6-phosphate, primary screen (AID 1220)
T3 sequence (P34949 whole entry): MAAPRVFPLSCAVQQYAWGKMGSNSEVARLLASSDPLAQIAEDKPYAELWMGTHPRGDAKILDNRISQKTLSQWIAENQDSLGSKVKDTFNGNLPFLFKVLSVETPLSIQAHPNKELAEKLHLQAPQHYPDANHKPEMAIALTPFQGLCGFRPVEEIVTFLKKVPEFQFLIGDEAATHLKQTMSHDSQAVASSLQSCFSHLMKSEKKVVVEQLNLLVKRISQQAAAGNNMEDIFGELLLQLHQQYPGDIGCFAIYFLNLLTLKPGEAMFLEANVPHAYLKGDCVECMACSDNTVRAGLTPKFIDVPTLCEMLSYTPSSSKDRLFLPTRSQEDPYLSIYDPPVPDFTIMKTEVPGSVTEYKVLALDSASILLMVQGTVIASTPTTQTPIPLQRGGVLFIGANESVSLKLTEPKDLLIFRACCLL

Genome polyprotein = Genome polyprotein (dengue virus type 2, UniProt P29990); test: flavivirus cap methylation enzyme inhibition – biochemical, confirmation dose response, primary screen (AID 588689); format: functional
[15] = target: 1-acylglycerol-3-phosphate O-acyltransferase ABHD5/Perilipin-5 (Homo sapiens, UniProt Q00G26+Q8WTS1); test: Luminescence-based biochemical high throughput dose response assay for inhibitors of the interaction of the lipase co-activator protein, abhydrolase domain containing 5 (ABHD5) with perilipin-5 (MLDP; PLIN5) (2K validation set). [Related pubchem assays (depositor defined):AID493035, AID493241]
[16] = target: T4, Polyadenylate-binding protein 1 (Homo sapiens, UniProt P11940); test: MLLE binding blockers, Cy5 peptide tracer – biochemical, fluorescence polarization, Cy5-PAM2 peptide, secondary, miRNA deadenylation inhibitor project, dose response (AID 602260); format: functional; details: read-out: IC50_Mean
[17] = target: T4, Polyadenylate-binding protein 1; test: MLLE domain peptide-binding blockers, IC50 – biochemical, fluorescence polarization, FITC-PAM2 peptide, dose response (AID 602259); format: functional; details: read-out: IC50_Mean
Perilipin-1/ABHD5 = Perilipin-1/ABHD5 (Homo sapiens, UniProt O60240+Q8WTS1); test: Luminescence-based biochemical high throughput dose response assay for inhibitors of the interaction of the lipase co-activator protein, abhydrolase domain containing 5 (ABHD5) with perilipin-1 (PLIN1) (2K validation set). [Related pubchem assays (depositor defined):AID493027, AID493057]
[18] = target: T5, Alkaline phosphatase, tissue-nonspecific isozyme (Homo sapiens, UniProt P05186); test: potency against alkaline phosphatase TNAP – biochemical, luminescent, dose response, SAR follow-up (AID 1056)
T5 sequence (P05186 whole entry): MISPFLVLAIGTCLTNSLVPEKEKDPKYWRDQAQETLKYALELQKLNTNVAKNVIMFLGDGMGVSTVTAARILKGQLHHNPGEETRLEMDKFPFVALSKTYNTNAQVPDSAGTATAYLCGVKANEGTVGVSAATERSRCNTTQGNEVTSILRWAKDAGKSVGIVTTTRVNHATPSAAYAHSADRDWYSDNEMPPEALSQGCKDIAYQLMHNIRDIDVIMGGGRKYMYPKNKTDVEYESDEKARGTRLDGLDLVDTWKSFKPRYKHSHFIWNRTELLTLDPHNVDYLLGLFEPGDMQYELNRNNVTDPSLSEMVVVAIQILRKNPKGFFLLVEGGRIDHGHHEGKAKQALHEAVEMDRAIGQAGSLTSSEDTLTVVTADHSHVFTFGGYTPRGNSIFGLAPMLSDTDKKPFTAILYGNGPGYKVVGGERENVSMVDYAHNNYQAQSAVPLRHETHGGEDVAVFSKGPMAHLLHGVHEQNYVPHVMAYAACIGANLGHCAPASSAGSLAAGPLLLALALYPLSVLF

[19] = target: Alkaline phosphatase, placental type (Homo sapiens, UniProt P05187); test: human placental alkaline phosphatase inhibition – biochemical, luminescence, confirmation (AID 1512); format: functional

T2 sequence (Q01196 whole entry, the tested form may be a part): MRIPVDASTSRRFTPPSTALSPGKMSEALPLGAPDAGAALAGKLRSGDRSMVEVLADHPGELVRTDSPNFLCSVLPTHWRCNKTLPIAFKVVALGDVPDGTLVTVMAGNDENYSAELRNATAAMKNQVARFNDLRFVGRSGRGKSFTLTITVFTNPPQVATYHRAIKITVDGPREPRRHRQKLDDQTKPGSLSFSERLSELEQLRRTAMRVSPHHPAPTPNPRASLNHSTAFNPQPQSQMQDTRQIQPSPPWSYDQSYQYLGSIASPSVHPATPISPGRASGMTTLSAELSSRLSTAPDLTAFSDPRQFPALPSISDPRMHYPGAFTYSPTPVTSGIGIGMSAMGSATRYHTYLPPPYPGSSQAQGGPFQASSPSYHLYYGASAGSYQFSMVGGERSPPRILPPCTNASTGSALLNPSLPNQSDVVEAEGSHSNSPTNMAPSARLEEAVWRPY
T2 sequence (Q13951 whole entry, the tested form may be a part): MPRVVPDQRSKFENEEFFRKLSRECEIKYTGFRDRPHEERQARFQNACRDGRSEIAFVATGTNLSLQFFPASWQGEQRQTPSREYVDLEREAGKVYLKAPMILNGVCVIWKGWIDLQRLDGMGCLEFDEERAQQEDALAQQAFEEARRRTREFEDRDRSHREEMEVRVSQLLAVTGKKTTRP
T1 sequence (P41145 whole entry): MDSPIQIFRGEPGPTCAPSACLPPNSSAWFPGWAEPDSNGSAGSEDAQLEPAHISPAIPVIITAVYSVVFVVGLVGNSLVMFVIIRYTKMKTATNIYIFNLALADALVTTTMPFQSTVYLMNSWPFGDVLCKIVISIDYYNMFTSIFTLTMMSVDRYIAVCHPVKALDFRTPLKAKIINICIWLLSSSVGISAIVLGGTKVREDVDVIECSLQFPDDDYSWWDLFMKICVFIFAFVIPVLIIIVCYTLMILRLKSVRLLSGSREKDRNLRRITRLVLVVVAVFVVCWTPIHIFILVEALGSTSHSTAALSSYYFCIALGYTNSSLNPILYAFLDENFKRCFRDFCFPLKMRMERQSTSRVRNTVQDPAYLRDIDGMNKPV
T4 sequence (P11940 whole entry, the tested form may be a part): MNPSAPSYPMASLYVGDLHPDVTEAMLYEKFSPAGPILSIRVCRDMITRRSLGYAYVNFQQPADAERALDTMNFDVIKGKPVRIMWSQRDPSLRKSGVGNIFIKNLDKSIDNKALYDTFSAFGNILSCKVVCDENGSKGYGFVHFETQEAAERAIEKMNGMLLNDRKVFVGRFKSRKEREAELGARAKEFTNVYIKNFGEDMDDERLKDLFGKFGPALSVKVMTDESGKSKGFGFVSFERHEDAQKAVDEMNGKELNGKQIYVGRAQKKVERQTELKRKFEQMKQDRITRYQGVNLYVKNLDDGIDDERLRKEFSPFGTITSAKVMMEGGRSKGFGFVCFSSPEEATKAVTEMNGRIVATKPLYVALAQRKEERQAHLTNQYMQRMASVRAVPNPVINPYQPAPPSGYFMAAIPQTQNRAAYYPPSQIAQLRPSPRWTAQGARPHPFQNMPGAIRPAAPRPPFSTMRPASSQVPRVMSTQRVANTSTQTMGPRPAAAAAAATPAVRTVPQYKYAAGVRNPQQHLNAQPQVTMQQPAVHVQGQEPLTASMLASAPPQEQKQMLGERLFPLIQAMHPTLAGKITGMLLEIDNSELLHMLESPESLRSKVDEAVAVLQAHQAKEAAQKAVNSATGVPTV
Chain of Mu-type opioid receptor (P35372 whole entry): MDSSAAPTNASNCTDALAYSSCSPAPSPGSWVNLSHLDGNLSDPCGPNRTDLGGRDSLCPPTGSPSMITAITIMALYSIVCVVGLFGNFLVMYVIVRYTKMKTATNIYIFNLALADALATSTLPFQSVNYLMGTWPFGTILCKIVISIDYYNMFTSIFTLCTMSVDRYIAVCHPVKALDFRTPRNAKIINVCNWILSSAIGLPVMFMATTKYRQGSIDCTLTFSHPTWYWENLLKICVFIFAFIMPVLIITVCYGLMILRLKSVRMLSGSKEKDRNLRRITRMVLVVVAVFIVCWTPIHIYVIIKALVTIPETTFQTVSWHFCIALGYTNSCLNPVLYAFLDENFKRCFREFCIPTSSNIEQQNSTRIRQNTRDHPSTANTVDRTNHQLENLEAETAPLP
Chain of DNA dC->dU-editing enzyme APOBEC-3G (Q9HC16 whole entry): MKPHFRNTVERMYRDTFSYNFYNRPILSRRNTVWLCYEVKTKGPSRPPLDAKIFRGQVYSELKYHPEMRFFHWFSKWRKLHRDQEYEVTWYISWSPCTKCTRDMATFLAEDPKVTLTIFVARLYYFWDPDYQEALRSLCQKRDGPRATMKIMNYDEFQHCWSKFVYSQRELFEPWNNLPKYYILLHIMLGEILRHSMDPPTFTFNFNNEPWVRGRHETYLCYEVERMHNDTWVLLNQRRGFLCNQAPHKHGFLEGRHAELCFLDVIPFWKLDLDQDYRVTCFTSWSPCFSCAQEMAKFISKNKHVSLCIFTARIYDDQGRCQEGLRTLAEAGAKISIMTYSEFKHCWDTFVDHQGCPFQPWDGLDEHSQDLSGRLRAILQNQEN
Chain of Genome polyprotein (P29990 2492-3391 limits assumed): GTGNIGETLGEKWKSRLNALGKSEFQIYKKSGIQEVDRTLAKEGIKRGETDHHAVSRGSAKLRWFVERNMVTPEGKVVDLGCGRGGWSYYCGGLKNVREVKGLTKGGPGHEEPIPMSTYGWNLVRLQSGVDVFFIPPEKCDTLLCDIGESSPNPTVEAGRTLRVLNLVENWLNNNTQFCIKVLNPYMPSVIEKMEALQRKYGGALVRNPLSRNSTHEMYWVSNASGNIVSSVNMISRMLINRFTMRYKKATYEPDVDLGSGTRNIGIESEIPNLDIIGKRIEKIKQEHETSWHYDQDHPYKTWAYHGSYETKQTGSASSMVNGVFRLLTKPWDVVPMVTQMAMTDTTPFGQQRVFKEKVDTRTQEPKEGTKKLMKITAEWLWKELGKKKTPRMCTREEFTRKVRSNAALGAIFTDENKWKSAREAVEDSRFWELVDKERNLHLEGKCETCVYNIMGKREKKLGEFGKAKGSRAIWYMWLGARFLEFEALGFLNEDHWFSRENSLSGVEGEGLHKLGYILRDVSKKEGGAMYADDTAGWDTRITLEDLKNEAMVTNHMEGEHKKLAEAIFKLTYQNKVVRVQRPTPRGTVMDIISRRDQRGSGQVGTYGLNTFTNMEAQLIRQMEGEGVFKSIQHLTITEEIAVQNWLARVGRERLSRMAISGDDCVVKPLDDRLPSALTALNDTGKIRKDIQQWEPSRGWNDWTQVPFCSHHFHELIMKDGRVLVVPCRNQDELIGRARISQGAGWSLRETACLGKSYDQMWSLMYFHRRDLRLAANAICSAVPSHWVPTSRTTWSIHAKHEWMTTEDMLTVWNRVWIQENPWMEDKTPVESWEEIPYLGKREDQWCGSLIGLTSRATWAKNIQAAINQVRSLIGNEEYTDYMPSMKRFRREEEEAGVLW
Chain of Type-1 angiotensin II receptor (P30556 whole entry, the tested form may be a part): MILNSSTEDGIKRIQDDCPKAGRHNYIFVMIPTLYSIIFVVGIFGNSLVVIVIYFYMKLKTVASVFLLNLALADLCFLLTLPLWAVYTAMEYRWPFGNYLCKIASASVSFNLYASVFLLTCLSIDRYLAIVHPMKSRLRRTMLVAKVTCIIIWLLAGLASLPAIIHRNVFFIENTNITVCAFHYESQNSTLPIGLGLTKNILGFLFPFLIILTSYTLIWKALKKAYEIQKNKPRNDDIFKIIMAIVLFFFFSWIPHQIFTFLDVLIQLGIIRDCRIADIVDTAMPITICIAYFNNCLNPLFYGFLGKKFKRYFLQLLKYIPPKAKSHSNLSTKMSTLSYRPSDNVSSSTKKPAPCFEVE
Chain of DNA dC->dU-editing enzyme APOBEC-3A (P31941 whole entry): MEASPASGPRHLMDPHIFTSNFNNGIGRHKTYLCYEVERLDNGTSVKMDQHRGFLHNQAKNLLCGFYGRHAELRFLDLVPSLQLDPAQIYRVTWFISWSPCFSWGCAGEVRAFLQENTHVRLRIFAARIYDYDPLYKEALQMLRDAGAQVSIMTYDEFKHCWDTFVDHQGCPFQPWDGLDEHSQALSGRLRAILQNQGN
Chain of 1-acylglycerol-3-phosphate O-acyltransferase ABHD5/Perilipin-5 (Q00G26 whole entry, the tested form may be a part): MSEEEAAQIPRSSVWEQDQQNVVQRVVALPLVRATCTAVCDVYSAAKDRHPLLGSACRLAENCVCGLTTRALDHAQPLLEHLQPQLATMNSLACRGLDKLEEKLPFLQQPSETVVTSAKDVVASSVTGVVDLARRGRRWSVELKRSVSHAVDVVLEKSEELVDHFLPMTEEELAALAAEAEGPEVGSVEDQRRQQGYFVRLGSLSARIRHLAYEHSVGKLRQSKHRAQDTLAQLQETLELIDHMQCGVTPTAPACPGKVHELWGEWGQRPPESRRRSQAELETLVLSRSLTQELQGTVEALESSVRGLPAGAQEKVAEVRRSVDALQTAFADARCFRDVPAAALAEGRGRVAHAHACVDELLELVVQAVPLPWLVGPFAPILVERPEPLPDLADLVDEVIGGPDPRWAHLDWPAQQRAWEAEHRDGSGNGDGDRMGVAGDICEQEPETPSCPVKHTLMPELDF
Chain of 1-acylglycerol-3-phosphate O-acyltransferase ABHD5/Perilipin-5 (Q8WTS1 whole entry, the tested form may be a part): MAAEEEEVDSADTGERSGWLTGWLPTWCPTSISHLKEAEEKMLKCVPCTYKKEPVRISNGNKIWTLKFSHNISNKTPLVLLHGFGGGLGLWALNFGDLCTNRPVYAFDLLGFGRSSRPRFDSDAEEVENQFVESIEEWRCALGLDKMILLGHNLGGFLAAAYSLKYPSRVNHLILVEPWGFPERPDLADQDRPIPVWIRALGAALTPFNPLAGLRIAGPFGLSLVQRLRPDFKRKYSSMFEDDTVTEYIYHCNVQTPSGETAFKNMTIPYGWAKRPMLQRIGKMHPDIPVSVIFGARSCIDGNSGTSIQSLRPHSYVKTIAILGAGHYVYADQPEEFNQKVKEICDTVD
Chain of Low molecular weight phosphotyrosine protein phosphatase (P24666 whole entry, the tested form may be a part): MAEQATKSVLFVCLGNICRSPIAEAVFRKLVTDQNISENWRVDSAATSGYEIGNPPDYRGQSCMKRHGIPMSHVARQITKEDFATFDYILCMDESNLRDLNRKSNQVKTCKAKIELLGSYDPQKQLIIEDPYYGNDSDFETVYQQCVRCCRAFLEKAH

## COc1cccc(-c2nnc(NC(=O)c3ccc(S(=O)(=O)N4CCOCC4)cc3)o2)c1
[1]
  CC50: 19.7 µM (active)
[2]
  CC50: 13.9 µM (active)
cells
  IC50: 22.8 µM (active)
[3]
  CC50: 8.51 µM (active)
[4]
  CC50: 7.2 µM (active)

## O=C(Cn1c(=O)c2cccn2c2ccc(F)cc21)NCCCN1CCN(c2ccc(F)cc2)CC1
Mu-type opioid receptor
  IC50: > 32 µM (inactive)
[5]
  IC50: > 20 µM (inactive)
[6]
  IC50: > 32 µM (inactive)
[7]
  IC50: 14.6 µM (inactive)

## Cc1cc(C)cc(Oc2nc3c(C)cccn3c(=O)c2/C=C(\C#N)C(=O)NC2CCS(=O)(=O)C2)c1 (stereo not drawn)
[8]
  IC50: 68 µM (inactive)
[9]
  IC50: 4.95 µM (active)

## COc1cc2c(cc1NC(=O)c1cccc([N+](=O)[O-])c1)oc1ccccc12
[10]
  IC50: 14.2 µM (active)
[11]
  EC50: > 100 µM (inactive)

## Cc1nc(O)c(C#N)c(C)c1CCC(=O)Nc1cc(S(C)(=O)=O)ccc1Cl
[12]
  IC50: 11.7 µM (active)
[13]
  IC50: 9.97 µM (active)

## COc1cc(/C=C2\C(=O)NC(=O)N(c3ccccc3)C2=O)c([N+](=O)[O-])cc1OC
[14]
  IC50: > 50 µM (not active)
Genome polyprotein
  IC50: 17.3 µM (active)
[15]
  IC50: 3.41 µM (active)
[16]
  IC50: 53.9 µM (inactive)
[17]
  IC50: 42.8 µM (inactive)
Perilipin-1/ABHD5
  IC50: 3.29 µM (active)

## COC(=O)c1cc(-c2c[nH]c3ccccc23)[nH]n1
[18]
  IC50: 1.67 µM (active) and 906 nM (active)
[19]
  IC50: > 100 µM (inactive)
